From PMC6359675, “Functionalization of the Chalcone Scaffold for the Discovery of Novel Lead Compounds Targeting Fungal Infections” (Molecules, 2019)
Where two headings read alike, the source gives them in different places.

Assays:
C. albicans ATCC 10231 = assay: In vitro susceptibility testing, microdilution broth (EUCAST), C. albicans control strain; type: cell-based, Candida albicans; details: for inhibition at 100 µM: ATCC10231, 24 h; for antifungal activity against C. albicans growth, in words: screen at 100 μM; for IC50: mean and 95% confidence interval
Procedure: The in vitro antifungal activity of the chalcones was evaluated by a microdilution broth method in accordance with the guidelines provided by the EUCAST Edef 7.3 [22]. Briefly, all strains were cultured on Sabauraud dextrose, then inocula, prepared at 0.5 McFarland, were diluted 1:20 in RPMI-1640 medium (Gibco®, ThermoFisher Scientific Inc., Waltham, MA, USA), containing glucose 2%, 0.3% levo-glutamine buffered to pH 7.0 with 0.165 M 3-(N-morpholino)propanesulfonic acid (MOPS) to yield 1-5 × 10^5 cells/mL. A total of 100 µL of the yeast suspension was inoculated in a 96-well microplate and incubated with 100 µL of serially 2-fold dilution of the compound in the range 200–6.25 µM. The following controls were included: yeast suspensions incubated in RPMI-1640 culture medium (positive growth control), or supplemented with dilutions of DMSO, or fluconazole (Sigma-Aldrich, St. Louis, MO, USA) as a commercial drug. To check the background turbidity of reagents and the sterility of the procedure, dilutions of each compound were incubated in RPMI-1640 culture medium, without yeast inoculum. The inoculated plate was incubated at 37 °C for 24 h, and subsequently the optical density at 630 nm was measured by the Multiskan Ascent microplate reader (Thermo Fisher Scientific Inc.). The effectiveness of the compounds was expressed as percent inhibition relative to the positive growth control when the inhibition […] the 50% at 100 µM. The IC50 value was determined by interpolation of the dose–response curves generated by plotting the percentages of growth inhibition, relative to the drug-free control (set to 100% of growth), as a function of the tested concentrations (on a logarithm scale). Statistical analysis was carried out by the nonlinear regression method using GraphPad Prism version 5.0 for Windows (GraphPad Software, San Diego, CA, USA). All assays were performed in triplicate and at least two independent experiments were carried out.

[1] = Cytotoxicity test on Vero cells (WST8/CCK-8 cell viability); type: cell-based, African green monkey; details: African green monkey, Vero cells (ATCC CCL-81), Vero cells, mean and 95% confidence interval
Procedure: African green monkey kidney cells (Vero ATCC CCL-81) were cultured in Eagle’s Minimal Essential Medium (MEM) (Sigma-Aldrich), supplemented with 10% fetal bovine serum (FBS) (Carlo Erba Reagents, Milan, Italy), 100 U/mL penicillin, and 100 µg/mL streptomycin at 37 °C with 5% CO2. For experiments, cells were seeded into 96-well plates at 10^4 cells/well, and incubated at 37 °C for 24 h. Following washes with PBS, cell monolayer was incubated with 100 µL of serially 2-fold dilution of the compound in the range 200–6.25 µM. Both untreated cells and cells incubated with medium containing solvent dilutions were included in each experiment as controls.
The cell viability was assessed by a WST8-based assay according to the manufacturer’s instructions (CCK-8, Cell Counting Kit-8, Dojindo Molecular Technologies, Rockville, MD, USA). After 72 h of incubation, culture medium was removed from each well, the monolayer was washed with PBS, and 100 µL of fresh medium containing 10 µL of CCK-8 solution were added. Following a 2 h at 37 °C, the absorbance was measured at 450/630 nm; data were calculated as the percentage of the cell viability relative to the untreated controls.

[2] = Candida albicans, C. albicans ATCC 10231
[3] = Candida albicans, ATCC10231, C. albicans ATCC 10231, read-out: IC50
[4] = Candida albicans, ATCC10231, C. albicans ATCC 10231, read-out: IC50 [μg/mL]
[5] = C. albicans ATCC 10231, read-out: IC50

Row | Structure (SMILES) | melting point [°C] | inhibition at 100 µM (C. albicans ATCC 10231; [2]) [%] | antifungal activity against C. albicans growth, in words (C. albicans ATCC 10231; C. albicans ATCC 10231) | IC50 (C. albicans ATCC 10231; [3]) [µM] | IC50 (C. albicans ATCC 10231; [4]) [µg/mL] | CC50 at 72 h ([1]; read-out: CC50) [µM] | CC50 at 72 h ([1]; read-out: CC50 [μg/mL]) [µg/mL] | IC50 (C. albicans ATCC 10231; [5]) [µM]
1 | C#CCOc1ccc(C(=O)/C=C/c2cccnc2)cc1 [Compound 36, (E)-1-(4-(prop-2-yn-1-yloxy)phenyl)-3-(pyridin-3-yl)prop-2-en-1-one] | 96 to 98 | < 1 | devoid of any effect | – | – | – | – | –
2 | C#CCOc1ccc(C(=O)/C=C/c2ccc(N(C)C)cc2)cc1 [Compound 39, (E)-3-(4-(dimethylamino)phenyl)-1-(4-(prop-2-yn-1-yloxy)phenyl)prop-2-en-1-one] | – | < 1 | inactive | – | – | – | – | –
3 | COc1cc(OCc2cn(CCO)nn2)ccc1C(=O)/C=C/c1ccc(F)cc1 [Compound 30, (E)-3-(4-fluorophenyl)-1-(4-((1-(2-hydroxyethyl)-1H-1,2,3-triazol-4-yl)methoxy)-2-methoxyphenyl)prop-2-en-1-one] | – | 9.5 ± 4.8 | inactive | – | – | – | – | –
4 | C#CCOc1ccc2c(c1)O/C(=C\c1cccnc1)C2=O [Compound 40, (Z)-6-(prop-2-yn-1-yloxy)-2-(pyridin-3-ylmethylene)benzofuran-3(2H)-one] | – | < 1 | loss in activity | – | – | – | – | –
5 | C#CCOc1ccc(C(=O)/C=C/c2ccc(N(C)C)cc2)c(OCC#C)c1 [Compound 27, (E)-1-(2,4-bis(prop-2-yn-1-yloxy)phenyl)-3-(4-(dimethylamino)phenyl)prop-2-en-1-one] | – | < 1 | inactive | – | – | – | – | –
6 | CC(C)=CCOc1ccc(C(=O)/C=C/c2ccncc2)cc1 [Compound 33, (E)-1-(4-((3-methylbut-2-en-1-yl)oxy)phenyl)-3-(pyridin-4-yl)prop-2-en-1-one] | 91 to 93 | < 1 | devoid of any effect | – | – | – | – | –
7 | CN(C)c1ccc(/C=C/C(=O)c2cc(F)ccc2O)cc1 [Compound 9, (E)-3-(4-(Dimethylamino)phenyl)-1-(5-fluoro-2-hydroxyphenyl)prop-2-en-1-one] | – | 38.5 ± 2.9 | – | – | – | – | – | –
8 | O=C(/C=C/c1ccc(F)cc1)c1ccc(OCCO)cc1 [Compound 31, (E)-3-(4-fluorophenyl)-1-(4-(2-hydroxyethoxy)phenyl)prop-2-en-1-one] | – | 97.3 ± 0.5 | – | 12 | 3.5 | 8.3 | 2.4 | –
9 | C#CCOc1ccc(C(=O)/C=C/c2cccnc2)c(OCC#C)c1 [Compound 24] | – | 72 ± 9.8 | – | 26.3 | 12.8 | 13 | 3.8 | 43.8
10 | COc1cc(O)ccc1C(=O)/C=C/c1ccc(F)cc1 [Compound 29, (E)-3-(4-Fluorophenyl)-1-(4-hydroxy-2-methoxyphenyl)prop-2-en-1-one] | – | 17.8 ± 4.1 | poor inhibition | – | – | – | – | –
11 | C#CCOc1ccc(C(=O)/C=C/c2cccnc2)c(O)c1 [Compound 16] | – | 91.9 ± 8.2 | – | 10.8 | 3.2 | 17.8 | 5.2 | –
12 | C#CCOc1ccc(C(=O)/C=C/c2cccnc2)c(OC)c1 [Compound 12] | – | > 99 | – | 30.7 | 9 | 13.6 | 4 | –
13 | C#CCOc1ccc(C(=O)/C=C/c2ccc(N(C)C)cc2)c(OC)c1 [Compound 15, (E)-3-(4-(dimethylamino)phenyl)-1-(2-methoxy-4-(prop-2-yn-1-yloxy)phenyl)prop-2-en-1-one] | – | < 1 | inactive | – | – | – | – | –
14 | CN(C)c1ccc(/C=C/C(=O)c2cc(Cl)ccc2O)cc1 [Compound 6, (E)-1-(5-chloro-2-hydroxyphenyl)-3-(4-(dimethylamino)phenyl)prop-2-en-1-one] | – | < 1 | inactive | – | – | – | – | –
15 | C#CCOc1ccc(C(=O)/C=C/c2ccc([N+](=O)[O-])cc2)c(OCC#C)c1 [Compound 26] | – | 63.9 ± 3.4 | – | 36.8 | 10.8 | 5.1 | 1.5 | –
16 | C#CCOc1ccc(C(=O)/C=C/c2ccc(N(C)C)cc2)c(O)c1 [Compound 17, (E)-3-(4-(dimethylamino)phenyl)-1-(2-hydroxy-4-(prop-2-yn-1-yloxy)phenyl)prop-2-en-1-one] | – | 11 ± 3.9 | inactive | – | – | – | – | –
17 | C#CCOc1ccc(C(=O)/C=C/c2ccc(F)cc2)c(OC)c1 [Compound 10, (E)-3-(4-fluorophenyl)-1-(2-methoxy-4-(prop-2-yn-1-yloxy)phenyl)prop-2-en-1-one] | – | 23.3 ± 9.6 | – | – | – | – | – | –
18 | CC(C)=CCOc1ccc(C(=O)/C=C/c2ccncc2)c(O)c1 [Compound 21] | – | 96.5 ± 1.4 | – | 12.6 | 3.7 | 14.8 | 4.3 | –
19 | CC(C)=CCOc1ccc(C(=O)/C=C/c2ccc(N(C)C)cc2)cc1 [Compound 35, (E)-3-(4-(dimethylamino)phenyl)-1-(4-((3-methylbut-2-en-1-yl)oxy)phenyl)prop-2-en-1-one] | – | 13.9 ± 3.6 | inactive | – | – | – | – | –
20 | C#CCOc1ccc(C(=O)/C=C/c2ccncc2)c(OCC#C)c1 [Compound 25] | – | 81.3 ± 17 | – | 43.8 | 7.7 | 9.1 | 2.7 | 26.3
21 | C#CCOc1ccc(C(=O)/C=C/c2ccncc2)c(OC)c1 [Compound 13] | – | > 99 | – | 8.1 | 2.4 | 7.3 | 2.1 | –
22 | O=C(/C=C/c1ccccc1F)c1cc(Cl)ccc1O [Compound 2, (E)-1-(5-Chloro-2-hydroxyphenyl)-3-(2-fluorophenyl)prop-2-en-1-one] | – | 35.8 ± 1.1 | – | – | – | – | – | –
23 | C#CCOc1ccc(C(=O)/C=C/c2ccc(F)cc2)c(OCC#C)c1 [Compound 22] | – | < 1 | inactive | – | – | – | – | –
24 | COc1cc(OCC=C(C)C)ccc1C(=O)/C=C/c1ccc(F)cc1 [Compound 18] | – | 34.1 ± 7.5 | – | – | – | – | – | –
25 | O=C(/C=C/c1ccc(F)cc1)c1cc(F)ccc1O [Compound 8, (E)-1-(5-Fluoro-2-hydroxyphenyl)-3-(4-fluorophenyl)prop-2-en-1-one] | – | < 1 | – | – | – | – | – | –
